This is an account of results in article PMC4077236 (Neurochemistry International, 2014).

Molecules are shown by their SMILES. Several values for one entry are separate records, joined by “and”; a condition that tells them apart may be missing. Equal values may be shown once. Entries after “also recorded” stand apart in the source; their conditions may differ. Read-outs that look alike come from different tables or passages of the source.

Data set [1] addresses T1, human DAT (Homo sapiens, UniProt Q01959).
Method: (§1) In brief, the cells were washed twice with Krebs–Ringer–HEPES buffer (KHB; composition: 25 mM HEPES·NaOH, pH 7.4, 120 mM NaCl, 5 mM KCl, 1.2 mM CaCl2, and 1.2 mM MgSO4 supplemented with 5 mM D-glucose). Then, the diluted reference and sample compounds were added and incubated for 5 min to allow for equilibration with the transporters. Subsequently, the tritiated substrates were added and the reaction was stopped after 1 min (SERT and DAT) and 3 min (NET), respectively. Cells were lysed with 1% SDS and the released radioactivity was quantified by liquid scintillation counting. All determinations were performed in duplicate or triplicate.
(§2) The release of [^3H] labelled substrate was expressed as fractional rate (i.e., the radioactivity released within one fraction was expressed as a percentage of the total radioactivity present in the cells at the beginning of that fraction). Drug-induced release was calculated by subtracting the estimated basal release from total release during the first 8 min of drug exposure and is expressed as a percentage of radioactivity in the cell at the beginning of drug exposure. Data were normalized by using cpm values with no substance present (only solvent) as 100%. IC50 values were calculated using non-linear regression fits performed with Prism software (GraphPad 5.0, San Diego, CA, U.S.A.). Data transformed into Dixon plots were fitted by linear regression.
Data set [2] addresses T2, human NET (Homo sapiens, UniProt P23975). Briefly: cell-based.
In data set [3] the target is T3, human SERT (Homo sapiens, UniProt P31645). As to the kind of experiment: cell-based.
In data set [4] the target is T1, human DAT. As to the kind of experiment: cell-based.
Method: as §1, §2
For data set [5] the following is noted: after levamisole administration; ref Hess et al., 2013; cited from earlier work.
Data set [6] addresses T2, human NET.
Data set [7] concerns the target T3, human SERT.
Method: (§3) For release studies, HEK-SERT, HEK-NET, or HEK-DAT cells were grown overnight on round glass coverslips (5-mm diameter, 40,000 cells per coverslip) placed in a 96-well plate and preloaded with 0.4 μM [^3H]dopamine, 0.1 μM [^3H]MPP+, or 0.4 μM [^3H]5-HT for 20 min at 37 °C in a final volume of 0.1 mL/well. […] A washout period of 40 min established a stable baseline for efflux of radioactivity; thereafter, substances were added and the experiment was started with the collection of fractions (2 min). At the end of the experiment, cells were lysed in 1% SDS and the released radioactivity was quantified by liquid scintillation counting.
(§4) The release of [^3H] labelled substrate was expressed as fractional rate (i.e., the radioactivity released within one fraction was expressed as a percentage of the total radioactivity present in the cells at the beginning of that fraction). Drug-induced release was calculated by subtracting the estimated basal release from total release during the first 8 min of drug exposure and is expressed as a percentage of radioactivity in the cell at the beginning of drug exposure. Data were normalized by using cpm values with no substance present (only solvent) as 100%.
For data set [8], the target named is T3, human SERT. This is another data set of the same source.
For data set [9], the target named is T2, human NET. This is another data set of the same source.
Method: as §3, §4
In data set [10] the target is T1, human DAT. The source holds these as a separate data set.
Method: as §3, §4
The conditions of data set [11]: stated without reference; cited from earlier work.
The conditions of data set [12]: ref Lin and Tsai, 2006; cited from earlier work.
A short description of a further data set: in vivo. The following applies: human, plasma, po, 50 mg.
Setting [13] is: IC50 uptake inhibition NET in the absence of cocaine.
[14] abbreviates: IC50 uptake inhibition DAT in the absence of cocaine, allosteric interaction experiment, dopamine uptake.
[15] abbreviates: IC50 uptake inhibition DAT, HEK293 stably expressing human DAT, substrate [3H]dopamine 0.1 μM, 5 min preincubation.

By IC50 is commonly meant the concentration at which inhibition is half-maximal. A higher IC50 goes with lower potency. As a reminder, the pKa is the negative logarithm of the acid dissociation constant. In general, Cmax refers to the highest concentration seen after dosing.

T3 sequence (P31645 whole entry): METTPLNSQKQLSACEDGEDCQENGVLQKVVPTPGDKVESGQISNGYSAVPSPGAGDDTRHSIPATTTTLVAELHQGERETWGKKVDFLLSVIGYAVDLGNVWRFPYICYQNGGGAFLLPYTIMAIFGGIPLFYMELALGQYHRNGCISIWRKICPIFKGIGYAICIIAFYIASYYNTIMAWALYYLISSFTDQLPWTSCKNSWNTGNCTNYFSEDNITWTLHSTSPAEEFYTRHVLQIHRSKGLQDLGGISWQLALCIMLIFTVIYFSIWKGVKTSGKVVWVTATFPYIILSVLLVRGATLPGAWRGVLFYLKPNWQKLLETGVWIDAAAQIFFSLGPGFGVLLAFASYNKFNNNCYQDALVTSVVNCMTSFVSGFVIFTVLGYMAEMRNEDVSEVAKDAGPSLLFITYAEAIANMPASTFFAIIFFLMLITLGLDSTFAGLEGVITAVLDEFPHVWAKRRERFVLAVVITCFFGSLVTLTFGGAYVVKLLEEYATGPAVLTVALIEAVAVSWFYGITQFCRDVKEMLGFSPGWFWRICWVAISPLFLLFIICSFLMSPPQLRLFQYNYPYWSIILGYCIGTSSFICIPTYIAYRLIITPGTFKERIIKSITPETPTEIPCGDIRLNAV
T1 sequence (Q01959 whole entry): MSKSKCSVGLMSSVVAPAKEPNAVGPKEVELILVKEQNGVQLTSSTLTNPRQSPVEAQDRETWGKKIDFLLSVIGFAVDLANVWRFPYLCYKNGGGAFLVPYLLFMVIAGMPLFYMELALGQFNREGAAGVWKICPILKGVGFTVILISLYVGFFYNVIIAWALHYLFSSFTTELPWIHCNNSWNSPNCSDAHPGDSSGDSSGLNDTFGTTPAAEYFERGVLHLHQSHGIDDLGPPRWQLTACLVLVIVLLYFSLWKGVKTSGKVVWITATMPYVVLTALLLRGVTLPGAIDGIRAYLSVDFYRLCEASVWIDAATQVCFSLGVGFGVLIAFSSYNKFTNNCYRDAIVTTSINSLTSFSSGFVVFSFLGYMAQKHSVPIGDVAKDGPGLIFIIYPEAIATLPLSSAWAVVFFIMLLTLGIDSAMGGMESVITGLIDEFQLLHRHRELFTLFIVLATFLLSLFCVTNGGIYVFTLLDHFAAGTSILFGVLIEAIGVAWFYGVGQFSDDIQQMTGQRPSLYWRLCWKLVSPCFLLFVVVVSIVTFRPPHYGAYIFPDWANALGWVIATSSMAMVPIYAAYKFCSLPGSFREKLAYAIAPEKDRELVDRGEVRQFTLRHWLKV
T2 sequence (P23975 whole entry): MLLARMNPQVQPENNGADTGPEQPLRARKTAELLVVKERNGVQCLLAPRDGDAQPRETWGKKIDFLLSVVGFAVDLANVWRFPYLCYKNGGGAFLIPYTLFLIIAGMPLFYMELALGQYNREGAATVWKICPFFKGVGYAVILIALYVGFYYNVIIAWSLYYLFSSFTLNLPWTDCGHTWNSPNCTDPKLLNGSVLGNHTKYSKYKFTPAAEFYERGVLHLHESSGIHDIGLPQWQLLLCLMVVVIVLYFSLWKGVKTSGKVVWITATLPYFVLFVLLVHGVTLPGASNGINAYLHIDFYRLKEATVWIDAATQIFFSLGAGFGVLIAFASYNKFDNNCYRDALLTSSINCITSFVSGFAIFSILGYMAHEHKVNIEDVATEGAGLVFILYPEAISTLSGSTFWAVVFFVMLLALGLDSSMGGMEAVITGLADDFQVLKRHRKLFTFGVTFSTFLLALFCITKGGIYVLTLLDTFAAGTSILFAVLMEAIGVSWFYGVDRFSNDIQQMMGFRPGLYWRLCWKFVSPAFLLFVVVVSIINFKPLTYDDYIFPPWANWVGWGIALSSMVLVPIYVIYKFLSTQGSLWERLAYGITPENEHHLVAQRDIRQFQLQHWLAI

`NC1=NCC(c2ccccc2)O1` (stereo not drawn) [aminorex]: the “Dixon plot: binding relative to cocaine at DAT” value at human DAT [1] (uptake inhibition with one inhibitor varied at fixed concentration of the other) is listed as “mutually exclusive manner”. Besides, the IC50 is 0.33 µM and < 1 µM against human NET [2] (IC50 uptake inhibition NET); 1.97 ± 1.2 µM on human NET [2] (setting [13]); 18.4 ± 1.12 µM at human SERT [3] (IC50 uptake inhibition SERT); 26.3 ± 1.03 µM against human SERT [3] (IC50 uptake inhibition SERT in the absence of cocaine); 710 ± 1050 nM at human DAT [4] (setting [14]); 850 nM and 855 nM and < 1000 nM at human DAT [4] (setting [15]). In addition, the “time aminorex could be detected in human urine” value in [5] is recorded as “up to 54 h”. Moreover, the “Dixon plot: binding relative to cocaine at NET” value on human NET [6] is reported as “mutually exclusive manner”. Further, the “substrate efflux SERT” value on human SERT [7] is recorded as “strong release; also recorded: significant substrate release”. Moreover, the “Dixon plot: binding relative to cocaine at SERT” value at human SERT [8] is on record as “mutually exclusive manner”. Besides, the “SERT inhibited at higher concentrations than NET and DAT” value at human SERT [8] was 20 fold. Moreover, at human SERT [8], the “SERT inhibitory effect compared to cocaine” value was “more than 10 fold”. Moreover, the “substrate efflux NET” value at human NET [9] (3 or 10 μM aminorex, presence and absence of 10 μM monensin) was “slight increase; also recorded: only a slight response”. On human DAT [10] (50 μM aminorex, presence and absence of 10 μM monensin), the “substrate efflux DAT” value is “no releasing effect; also recorded: completely absent”. Besides, in data set [11], the pKa is 7.4.
For the compound `c1ccc([C@H]2CN3CCSC3=N2)cc1` [levamisole], the “less potent than cocaine in blocking dopamine uptake” value at human DAT [1] (relative to cocaine) amounted to 300 fold. Also, the IC50 against human NET [2] (IC50 uptake inhibition NET) is 74.5 µM; on human NET [2] (setting [13]), 521 ± 2.3 µM; against human DAT [4] (setting [14]), 476000 ± 1540 nM; against human DAT [4] (setting [15]), 209900 ± 1310 nM. Besides, the “less potent than cocaine in blocking norepinephrine uptake” value at human NET [6] amounted to 100 fold. For the same compound, the “blood–brain barrier permeation” value in [12] is “readily permeates the blood–brain barrier”. This compound showed a Cmax in “in vivo” of around 1500 nM. In addition, on human NET [9] (100 μM levamisole, absence of monensin, [3H]MPP+ preloaded), the “substrate efflux NET” value was “slight increase; also recorded: slight increased substrate efflux”. Also, on human DAT [10] (100 μM levamisole, absence of monensin, [3H]dopamine preloaded), the “substrate efflux DAT” value is “no efflux was observed; also recorded: could not detect substrate efflux”. Moreover, in [11], the pKa is 7.
